Key:
[1] = system: CD4+ T cells (TH1, TH2, TH17, Treg); assay: Fluorescence flow cytometry of CD4+ T cell subsets in spinal cords of EAE mice; format: in vivo, C57BL/6 mice; conditions: EAE mice at peak of disease, 1 mg/kg/day
Description: Female C57BL/6 mice of 8-12 weeks of age, purchased from Jackson Laboratory, were provided with food and water ad libitum and were kept in pathogen free animal care facility of Medical University of South Carolina (MUSC) throughout the study. All procedures were conducted in accordance with accepted standards of humane care as approved by the Institutional Animal Care and Use Committee (Approved number: AR #1644). EAE was induced as described previously (Nath et al., 2009). Briefly, mice were immunized subcutaneously in the flank regions with MOG35-55 peptide (MOG; 200 μg; Peptide International) emulsified (1:1) in 100 ul complete Freund's adjuvant (CFA) on day 0 and day 7. Additionally, 300 ng of Pertussis toxin (Sigma-Aldrich, St. Louis, Mo.) was given on day 0 and day 2 by i.p. injection. Pertussis toxin used as per the standardized protocol reported by us and other investigators for the induction of EAE (Nath et al., 2009). Similarly, healthy control group received subcutaneous injection of PBS and CFA emulsion on day 0 and day 7. Clinical signs of EAE were scored by examiners blinded to experimental treatments using the following scale: 0=no clinical signs of disease; 1=piloerection and sluggish; 2=limp tail (ataxia); 2.5=ataxia with partial hind limb paralysis; 3=full paralysis of hind limb; 3.5=full paralysis of hind limb with paralysis of one fore limb; 4=full paralysis of two limbs; 4.5=moribund stage; 5=death. […] The drug treatments were continued till the termination of the study (day 41 post immunization). EAE animals without drug treatment received PBS. Likewise, healthy controls received vehicle.
Fluorescence flow cytometry analysis for each subset of CD4+ T cells (TH1, TH2, TH17, CD4+CD25+ FOXP3+ Treg, and CD4+CD25+ FOXP3− Treg) were performed based on our previous report with modification (Nath et al., 2004). Briefly, control mice, EAE mice. EAE mice treated with GSNO. […] The isolated CD4+ T cells were then resuspended with complete RPMI-media in 12-well plates (5×10^6 cells' 2 ml per well) containing MOG peptide (25 μg/ml) for 48 hrs. Following the centrifugation, the resulted supernatants were collected for ELISA for CD4+ subset specific cytokines (see below). The cell pellets were washed with cell staining solution (ebioscience, Waltham, Mass. USA) and stained with fluorescence labeled antibody specific to IFN-γ for TH1. IL-4 for TH2, IL-17 for TH17, CD25+ for total Treg. CD25+ and FOXP3+ for FOXP3+ Treg, and CD25+ and FOXP3− for FOXP3-Tregs (ebioscience, Waltham, Mass., USA). The cells were counted and analyzed using Beackman Coulter instrument (Beckman Coulter, Inc., Brea, Calif., USA).

myosin light chain (MLC) = assay: Western analysis of MLC phosphorylation (Ser19) in thrombin treated hBMVECs; format: cell-based, human; conditions: thrombin 0.1 unit/ml 5 min; L-NIO or FeTPPS 10 μM; GSNO or SIN-1 various concentrations
Description: Cell culture: Primary human brain microvascular endothelial cells (hBMVECs) were purchased from Angio-Proteomie (Cat #: cAP-0002, Atlanta, Ga.). The cells were cultured in cell culture flasks or plates precoated with Quick Coating Solution (Angio-Proteomie; Cat #: cAP-01) and maintained in Endothelial Growth Medium (Angio-Proteomie; Cat #: cAP-02) at 37° C. under 5% CO2/95% air. When the cells were almost confluent, the medium was replaced with endothelial basal medium (Angio-Proteomie; Cat #: cAP-03) containing 0.5% fetal bovine serum (FBS; Life Technologies, Grand Island, N.Y.) about 8-12 hours before the experiment. No institutional approval was required for this study. The study was not pre-registered.
Western immunoblot analysis was performed by standard method using 50 μg of cell lysates. Following the SDS-PAGE electrophoresis, proteins were transferred from the gel onto the Polyvinylidene fluoride membrane (GE Healthcare Life Sciences, Marlborough, Mass.). Membranes were blocked with non-fat dry milk (Santa Cruz Biotechnology) or I-Block™ (ThermoFisher Scientific, Waltham, Mass.) for detection of phospho-proteins and incubated with primary antibodies, such as MBP (Santa Cruz Biotech Cat #: sc13914; RRID: AB_648798), phospho-(Ser^19) MLC (Abeam, Cat #: ab2480; RRID: AB_303094), MLC (Abeam, Cat #: ab79935; RRID:AB_1952220), P-actin (Santa Cruz Biotechnology, Cat #: sc-47778; RRID:AB_2714189), phospho-eNOS (Ser^1177) (Cell Signaling, Cat #: 9571; RRID: AB_329837, Danvers, Mass.), eNOS (Cell Signaling, Cat #: 32027), RhoA (Santa Cruz Biotechnology; Cat #: sc418; RRID: AB_628218) or 3-nitrotyrosine (Abeam, Cat #: ab61392; RRID: AB_942087). Following washing, the membranes were incubated with horseradish peroxidase conjugated secondary antibody (Jackson Immunoresearch Lab, West Grove, Pa.), washed and then incubated with ECL reagent (Amersham Life Science, Pittsbrugh, Pa.), and exposed to Amersham Hyperfilm ECL film

SMILES | number of CD4+ IFN-γ+ (TH1) cells in spinal cords [1] | number of CD4+ IL-17 (TH17) cells in spinal cords [1] | number of CD4+CD25+ FOXP3+ Treg cells in spinal cords [1] | number of CD4+CD25+ FOXP3− Treg cells in spinal cords [1] | number of TH2 cells in the CNS [1] | thrombin-induced MLC phosphorylation (myosin light chain (MLC)) | number of total Treg cells (CD4+CD25+) in spinal cords [1]
Cc1cc(C(N)=O)ccc1-n1c(CCC(=O)O)ccc1-c1ccc(-n2ccnc2)cc1 [N6022, reference compound] | reduced | reduced | increased | increased | increased | – | –
N[C@@H](CCC(=O)N[C@@H](CSN=O)C(=O)NCC(=O)O)C(=O)O [GSNO, S-nitrosoglutathione] | no obvious effect | significantly decreased | without altering | significantly increased | – | attenuated | increased
Cl.O=S(=O)([O-])c1ccc(-c2c3nc(c(-c4ccc(S(=O)(=O)O)cc4)c4ccc([nH]4)c(-c4ccc(S(=O)(=O)O)cc4)c4nc(c(-c5ccc(S(=O)(=O)O)cc5)c5ccc2[nH]5)C=C4)C=C3)cc1.[Fe] [FeTPPS, 5,10,15,20-Tetrakis(4-sulfonatophenyl)porphyrinato Iron (III), Cl, reference compound] | – | – | – | – | – | inhibited | –

From patent US10925858B2, “S-nitrosoglutathione (GSNO) and GSNO reductase inhibitors for use in therapy” (MUSC FOUNDATION FOR RESEARCH DEVELOPMENT, priority 2017, dated 2021)
